Experimental data as given in paper PMC11458808, “Identification and development of a series of disubstituted piperazines for the treatment of Chagas disease” (European Journal of Medicinal Chemistry, 2022).
≈ marks a conversion by molar mass, not a printed value.

Assays:
[1] = system: T. cruzi infected Vero cells; test: Washout assay; type: cell-based, Trypanosoma cruzi; conditions: 8 days treatment
Protocol: (Supplementary Information, Fig. S1). We tested 1 in a T. cruzi washout assay to assess the compound's ability to clear all parasites in vitro. In this experiment, T. cruzi, cultured in Vero cells were treated with compound 1 at 20- to 30-fold the EC50 for 8 days (with compound being re-supplemented after 4 days). After treatment, the culture medium containing compound 1 was removed, the cell monolayer was washed extensively and then incubated with fresh medium containing no compound 1. […] The same result was obtained in three independent experiments (Supplementary Information, Table S1). […] We therefore ran a 4-day PK study on 1, dosing at 50 mg/kg twice daily. As the intrinsic clearance was very high, compound 1 was co-dosed with 1-ABT (1-aminobenzotriazole) to inhibit CYP-mediated degradation and maximise exposure. […] As this was a novel series with an unknown mechanism of action, the PKPD drivers were unknown, so this coverage was considered suitable for progression to an animal model of Chagas disease. Compound 1 was dosed twice daily at 50 mg/kg for 5 days in an acute Chagas disease mouse efficacy study. This mouse model, developed by the Kelly laboratory, is able to distinguish between benznidazole (clinically effective) and posaconazole (clinically ineffective).
1.2 Washout assay: Vero cells were infected overnight at MOI 5 with T. cruzi X10/7 A1 trypomastigotes in MEM media (Gibco) containing 10% FCS (Hyclone) followed by washing of the monolayer to remove any extracellular trypomastigotes. 24 h later, infected cells were trypsinised and plated in T25 flasks in presence of compounds at the indicated concentrations and incubated for 8 days in MEM media (Gibco) containing 1% FCS. Four days into the treatment the media was replaced with fresh compound-containing media. After the treatment period, monolayers were washed extensively. The cultures were then maintained, replacing media twice weekly, until trypomastigotes could be observed by light microscopy. Observations were carried out twice weekly for up to 60 days post washout.
Results for three independent washout experiments (experiment c is reported in the main manuscript). T. cruzi infected Vero cells were treated for 8 days at the indicated concentrations (compounds replenished after 4 days), followed by extensive washing to remove compounds and incubation until parasites were observed microscopically. ^a day after washout of compounds on which egressed parasites were detected first.

[2] = ChromLogD pH7.4 (chromatographic hydrophobicity index); type: physicochemical; conditions: pH 7.4, CHIpH7.4 × 0.0857–2; for chromatographic logD: read-out: ChromlogDpH7.4
[3] = system: intracellular T. cruzi X10/7 A1 amastigotes; test: Intracellular T. cruzi assay; type: cell-based, Trypanosoma cruzi; conditions: for EC50: Trypanosoma cruzi, read-out: T. cruzi (pEC50) (converted); for EC50 / T. cruzi (pEC50): potency against intracellular T. cruzi amastigotes, at least three independent replicates, standard deviations ≤0.2; for Activity in the intracellular T. cruzi assay (in words): purified compound
Protocol: 1.1 Intracellular T. cruzi assay: Potency against intracellular T. cruzi X10/7 A1 amastigotes was determined as described previously with as sole modification that the compound treatment duration was increased from 72h to 96h.

[4] = Intrinsic clearance in mouse liver microsomes; type: in vitro ADME; conditions: for Mouse CLi: mouse liver microsomal intrinsic clearance
Protocol: 2.2 Intrinsic clearance: This assay was conducted as previously described in [5].

[5] = Aqueous (kinetic) solubility by CAD; type: physicochemical; conditions: kinetic solubility measured by CAD
Protocol: 2.1 Aqueous solubility: This assay was conducted as previously described in [4].

Structure (SMILES)	Relapse Day ([1]; experiment a, 0.2 µM, 50-fold EC50) [days]	Relapse Day ([1]; experiment b, 0.2 µM, 50-fold EC50) [days]	Relapse Day ([1]; experiment c, 0.1 μM, 25-fold EC50) [days]	chromatographic logD [2]	EC50 [3] [µM]	Mouse CLi [4] [mL/min/g]	solubility [5] [µM]	Activity in the intracellular T. cruzi assay (in words) [3]	ChromlogDpH7.4 [2]	T. cruzi (pEC50) [3]	Clearance (mouse liver microsomal) ([4]; mouse, microsomes) [mL/min/g]
CC[C@@H]([C@H](C)O)n1ncn(-c2ccc(N3CCN(c4ccc(OC[C@@H]5CO[C@@](Cn6cncn6)(c6ccc(F)cc6F)C5)cc4)CC3)cc2)c1=O [posaconazole]	7	11	7	–	–	–	–	–	–	–	–
Cc1ccc(S(=O)(=O)Nc2ccc(CN3CCN(C(=O)c4cc5ccccc5[nH]4)CC3)cc2)cc1 [Compound 23, N-(4-((4-(1H-indole-2-carbonyl)piperazin-1-yl)methyl)phenyl)-4-methylbenzenesulfonamide]	–	–	–	5.6	0.2	40	< 1	–	–	–	–
COc1ccc(S(=O)(=O)Nc2ccc(CCN3CCN(C(=O)c4cccc(Cl)c4)CC3)cc2)cc1 [Compound 40, N-(4-(2-(4-(3-chlorobenzoyl)piperazin-1-yl)ethyl)phenyl)-4-methoxybenzenesulfonamide]	–	–	–	5.5	5.01	>50	35 (≈ 18 µg/mL)	–	–	–	–
Cc1ccc(S(=O)(=O)Nc2ccc(CN3CCN(C(=O)C4CCc5ccccc54)CC3)cc2)cc1 (centres unmarked) [Compound 24, N-(4-((4-(2,3-dihydro-1H-indene-1-carbonyl)piperazin-1-yl)methyl)phenyl)-4-methylbenzenesulfonamide]	–	–	–	5.8	3.98	>50	35 (≈ 17.1 µg/mL)	–	–	–	–
COc1ccc(S(=O)(=O)Nc2ccc(CN3CCN(C(=O)C4CC(O)(C(F)(F)F)C4)CC3)cc2)cc1 (centres unmarked) [Compound 22, N-(4-((4-(3-hydroxy-3-(trifluoromethyl)cyclobutane-1-carbonyl)piperazin-1-yl)methyl)phenyl)-4-methoxybenzenesulfonamide]	–	–	–	4.3	> 50.1	8.0	≥ 374	–	–	–	–
COc1ccc(S(=O)(=O)Nc2ccc(CN3CCN(C(=O)Cn4cccnc4=O)CC3)cc2)cc1 [Compound 18, 4-methoxy-N-(4-((4-(2-(2-oxopyrimidin-1(2H)-yl)acetyl)piperazin-1-yl)methyl)phenyl)benzenesulfonamide]	–	–	–	2.3	> 50.1	<0.5	≥ 336	–	–	–	–
COc1ccc(S(=O)(=O)Nc2ncc(CN3CCN(C(=O)c4cccc(Cl)c4)CC3)nc2OC)cc1 [Compound 46, N-(5-((4-(3-chlorobenzoyl)piperazin-1-yl)methyl)-3-methoxypyrazin-2-yl)-4-methoxybenzenesulfonamide]	–	–	–	4	> 50.1	1.2	≥ 443	lacked any activity	–	–	–
COc1ccc(S(=O)(=O)Nc2ccc(CN3CCN(C(=O)c4ccc(C)c(Cl)c4)CC3)cc2)cc1 [Compound 15, N-(4-((4-(3-chloro-4-methylbenzoyl)piperazin-1-yl)methyl)phenyl)-4-methoxybenzenesulfonamide]	–	–	–	5.8	1.26	>50	13 (≈ 6.68 µg/mL)	–	–	–	–
O=C(c1cccc(Cl)c1)N1CCN(Cc2ccc(NS(=O)(=O)CC3CCCO3)cc2)CC1 (centres unmarked) [Compound 7, N-(4-((4-(3-chlorobenzoyl)piperazin-1-yl)methyl)phenyl)-1-(tetrahydrofuran-2-yl)methanesulfonamide]	–	–	–	4.6	15.8	44	486 (≈ 232 µg/mL)	–	–	–	–
N#Cc1ccc(S(=O)(=O)Nc2ccc(CN3CCN(C(=O)c4cccc(Cl)c4)CC3)cc2)cc1 [Compound 5, N-(4-((4-(3-chlorobenzoyl)piperazin-1-yl)methyl)phenyl)-4-cyanobenzenesulfonamide]	–	–	–	5.2	7.94	>50	54 (≈ 26.7 µg/mL)	–	–	–	–
COc1ccc(S(=O)(=O)Nc2ccc(Cn3cc4c(n3)CN(C(=O)c3cccc(Cl)c3)C4)cc2)cc1 [Compound 29]	–	–	–	–	–	12	19 (≈ 9.94 µg/mL)	–	5.0	4.9	12
COc1ccc(S(=O)(=O)Nc2ccc(CN3CCN(C(=O)c4cc(Cl)ccc4OC)CC3)cc2)cc1 [Compound 14, N-(4-((4-(5-chloro-2-methoxybenzoyl)piperazin-1-yl)methyl)phenyl)-4-methoxybenzenesulfonamide]	–	–	–	5.2	2	>50	27 (≈ 14.3 µg/mL)	–	–	–	–
COc1ccc(S(=O)(=O)Nc2ccc(OC3CCN(C(=O)c4cccc(Cl)c4)CC3)cc2)cc1 [Compound 28, N-(4-((1-(3-chlorobenzoyl)piperidin-4-yl)oxy)phenyl)-4-methoxybenzenesulfonamide]	–	–	–	5.9	5.01	37	< 1	–	–	–	–
COc1ccc(S(=O)(=O)Nc2ccc(CN3C[C@@H]4C[C@H]3CN4C(=O)c3cccc(Cl)c3)cc2)cc1 [Compound 39, N-(4-(((1S,4S)-5-(3-chlorobenzoyl)-2,5-diazabicyclo[2.2.1]heptan-2-yl)methyl)phenyl)-4-methoxybenzenesulfonamide]	–	–	–	5.1	15.8	>50	47 (≈ 24.1 µg/mL)	–	–	–	–
O=C(c1cccc(Cl)c1)N1CCN(Cc2ccc(N3CCCCS3(=O)=O)cc2)CC1 [Compound 8, (3-chlorophenyl)(4-(4-(1,1-dioxido-1,2-thiazinan-2-yl)benzyl)piperazin-1-yl)methanone]	–	–	–	5.1	25.1	21	≥ 402	–	–	–	–
O=C(c1cccc(Cl)c1)N1CCN(Cc2ccc(NS(=O)(=O)c3ccccc3)cc2)CC1 [Compound 3, N-(4-((4-(3-chlorobenzoyl)piperazin-1-yl)methyl)phenyl)benzenesulfonamide]	–	–	–	5.5	1.58	>50	67 (≈ 31.5 µg/mL)	–	–	–	–
Cc1ccc(S(=O)(=O)Nc2ccc(CN3CCN(C(=O)Cc4coc5ccccc45)CC3)cc2)cc1 [Compound 25]	–	–	–	–	–	>50	22 (≈ 11.1 µg/mL)	–	5.7	5.2	–
COc1ccc(S(=O)(=O)Nc2ccc(CN3CCN(C(=O)c4cccc(F)c4)CC3)cc2)cc1 [Compound 11, N-(4-((4-(3-fluorobenzoyl)piperazin-1-yl)methyl)phenyl)-4-methoxybenzenesulfonamide]	–	–	–	4.8	0.631	>50	76 (≈ 36.8 µg/mL)	–	–	–	–
COc1ccc(S(=O)(=O)Nc2ccc(CN3CCN(C(=O)c4ccnc(C)n4)CC3)cc2)cc1 [Compound 19, 4-methoxy-N-(4-((4-(2-methylpyrimidine-4-carbonyl)piperazin-1-yl)methyl)phenyl)benzenesulfonamide]	–	–	–	3.2	> 50.1	12	414 (≈ 199 µg/mL)	–	–	–	–
COc1ccc(S(=O)(=O)Nc2ccc(CN3CCN(C(=O)C4CN(C(C)=O)C4)CC3)cc2)cc1 [Compound 21, N-(4-((4-(1-acetylazetidine-3-carbonyl)piperazin-1-yl)methyl)phenyl)-4-methoxybenzenesulfonamide]	–	–	–	2.6	> 50.1	1.0	≥ 511	–	–	–	–
COc1ccc(S(=O)(=O)Nc2ncc(CN3CCN(C(=O)c4cccc(Cl)c4)CC3)cn2)cc1 [Compound 42, N-(5-((4-(3-chlorobenzoyl)piperazin-1-yl)methyl)pyrimidin-2-yl)-4-methoxybenzenesulfonamide]	–	–	–	3.1	> 50.1	1.0	≥ 345	lacked any activity	–	–	–
